Values quoted from earlier work as cited in patent publication US7341711B2, “Porphyrin compounds and their use in high-field MRI” (Guerbet, priority 2004, dated 2008).
Several values for one entry are separate records, joined by “and”; a condition that tells them apart may be missing. Equal values may be shown once. Read-outs that look alike come from different tables or passages of the source.

In the case of `O=S(=O)([O-])c1ccc(-c2c3nc(c(-c4ccc(S(=O)(=O)[O-])cc4)c4ccc([n-]4)c(-c4ccc(S(=O)(=O)[O-])cc4)c4ccc([n-]4)c(-c4ccc(S(=O)(=O)[O-])cc4)c4nc2C=C4)C=C3)cc1.[Mn+3]` [MnTPPS4], the relaxivity (at 1.5 T) is listed as 17 mmol⁻¹ s⁻¹, the relaxivity (field not stated) is listed as about 10 mmol⁻¹ s⁻¹ and the relaxivity (in blood plasma at 0.25 T) is listed as 10.7 mmol⁻¹ s⁻¹ and 12.2 mmol⁻¹ s⁻¹.
